Results taken from patent publication EP1366764A1, “Method of screening for calcium receptor-active molecules” (The Brigham & Women's Hospital, Inc., priority 1993, dated 1994).
pKd: −log10 of the molar value.

How the values were obtained:
[1] = polymers of 1000 amino acids; cited from earlier work
[2] = system: human parathyroid cells; test: Measurement of PTH secretion from human parathyroid cells (radioimmunoassay); type: cell-based; details: human (adenoma) parathyroid cells; at concentrations that caused the mobilization of intracellular Ca2+
Experimental: Cells were suspended in PCB containing 0.5 mM CaCl2 and 0.1% BSA.
For human cells, a commercially available radioimmunoassay kit (INS-PTH; Nichols Institute, Los Angeles, CA) which recognizes intact and N-terminal human PTH was used because GW-1 antibody recognizes human PTH poorly.

[3] = system: rMTC 6-23 cells; test: Measurement of cytosolic Ca2+ in C-cells (fura-2); type: cell-based, rat
[4] = biological target: T1, Ca^2+ receptor (Bos taurus, UniProt P35384); test: 45Ca2+ release from Xenopus oocytes injected with bovine parathyroid mRNA; type: cell-based; details: 10 mM for 20 min; compared to mock challenge with buffer
T1 construct: oocytes were injected with bovine parathyroid mRNA or water; expressed in transfected cells; host or cells: Xenopus laevis oocytes injected with poly(A)+ mRNA from bovine (calf) parathyroid glands
T1 sequence (P35384 20-1085): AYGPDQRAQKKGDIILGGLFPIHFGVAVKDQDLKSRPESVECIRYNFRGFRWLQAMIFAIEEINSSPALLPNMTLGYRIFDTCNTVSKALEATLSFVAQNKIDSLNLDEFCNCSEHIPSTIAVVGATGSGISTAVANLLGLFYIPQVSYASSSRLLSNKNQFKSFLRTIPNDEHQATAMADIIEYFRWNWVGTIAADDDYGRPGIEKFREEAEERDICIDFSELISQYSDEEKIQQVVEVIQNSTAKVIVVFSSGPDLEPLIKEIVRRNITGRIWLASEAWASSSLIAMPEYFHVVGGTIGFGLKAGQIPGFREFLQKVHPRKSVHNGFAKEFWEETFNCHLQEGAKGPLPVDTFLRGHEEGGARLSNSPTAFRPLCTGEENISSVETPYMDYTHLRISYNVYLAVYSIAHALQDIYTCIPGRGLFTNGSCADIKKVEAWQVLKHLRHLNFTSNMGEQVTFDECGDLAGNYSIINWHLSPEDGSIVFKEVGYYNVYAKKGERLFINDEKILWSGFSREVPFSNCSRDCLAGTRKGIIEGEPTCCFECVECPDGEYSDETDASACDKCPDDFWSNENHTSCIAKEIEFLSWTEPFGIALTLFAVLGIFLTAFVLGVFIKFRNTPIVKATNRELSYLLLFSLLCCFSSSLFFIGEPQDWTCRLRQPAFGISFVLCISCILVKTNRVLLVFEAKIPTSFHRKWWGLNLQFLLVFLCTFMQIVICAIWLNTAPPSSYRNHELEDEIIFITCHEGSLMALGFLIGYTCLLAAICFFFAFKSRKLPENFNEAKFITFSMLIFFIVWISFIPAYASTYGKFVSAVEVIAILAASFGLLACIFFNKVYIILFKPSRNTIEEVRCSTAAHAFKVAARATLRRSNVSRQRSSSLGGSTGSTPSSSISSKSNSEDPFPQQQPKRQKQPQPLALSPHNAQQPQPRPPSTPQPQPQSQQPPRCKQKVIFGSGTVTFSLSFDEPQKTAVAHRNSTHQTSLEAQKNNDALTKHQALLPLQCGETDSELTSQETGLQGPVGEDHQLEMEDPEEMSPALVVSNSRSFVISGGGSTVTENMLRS
Text: Prior to being stimulated, oocytes were loaded with ^45Ca^2+.

[5] = biological target: T2, bovine parathyroid Ca^2+-receptor (Bos taurus, UniProt P35384); test: Cl- current in Xenopus oocytes expressing the cloned receptor (BoPCaR 1); type: cell-based
T2 construct: expressed in transfected cells; host or cells: Xenopus laevis oocytes injected with cRNA from the BoPCaR 1 cDNA (plasmid pSPORT1, ATCC 75416)
T2 sequence (P35384 20-1085): T1 sequence (P35384 20-1085)
Text: An expression cloning strategy using Xenopus laevis oocytes was used to identify the cDNA encoding the bovine parathyroid calcium receptor. These techniques are described only briefly here, and a more complete description preceded this one in the sections describing techniques which may be used to clone additional forms of the Ca^2+-receptor from other cell types. Poly(A^+)-enriched RNA was initially prepared from bovine parathyroid glands using extraction with guanidinium thiocyanate, centrifugation through CsCl and oligo(dT) cellulose chromatography. […] No such currents were elicited in control eggs injected with water. […] The mRNA was then subjected to size fractionation, utilizing preparative, continuous flow agarose gel electrophoresis (Hediger, M.A., Anal. Biochem. 159:280-286 (1986)) to obtain fractions of poly(A^+)-RNA further enriched in transcripts coding for the Ca^2+-receptor. […] A plasmid containing the BoPCaR 1 […] (See plasmid, Figure 45; restriction map, Figure 46; and partial nucleotide sequence, Figure 47) has been deposited in the ATCC under deposit number ATCC 75416.
Several pharmacological and biochemical criteria were used to identify this clone as encoding a bona fide bovine parathyroid Ca^2+-receptor. […] These responses increased markedly over a period of one (1) to four (4) days after injection of the eggs with cRNA prepared from the BoPCaR 1 cDNA. […]

[6] = Net positive charge of the molecule; type: physicochemical; details: at physiological pH (pH 7.3)
[7] = system: human parathyroid cells; test: Measurement of [Ca2+]i (fura-2) in human parathyroid cells; type: cell-based; details: 20 µM
[8] = system: rat osteoclasts; test: Measurement of [Ca2+]i in single rat osteoclasts (indo-1); type: cell-based
[9] = biological target: T3, Ca^2+ receptor (Homo sapiens, UniProt P41180); test: Cl- current in Xenopus oocytes injected with human parathyroid cell mRNA; type: cell-based
T3 construct: Oocytes were injected with poly(A)^+-enriched mRNA from human parathyroid tissue; expressed in transfected cells; host or cells: Xenopus laevis oocytes injected with poly(A)+ mRNA from human hyperplastic parathyroid glands (secondary HPT)
T3 sequence (P41180 20-1078): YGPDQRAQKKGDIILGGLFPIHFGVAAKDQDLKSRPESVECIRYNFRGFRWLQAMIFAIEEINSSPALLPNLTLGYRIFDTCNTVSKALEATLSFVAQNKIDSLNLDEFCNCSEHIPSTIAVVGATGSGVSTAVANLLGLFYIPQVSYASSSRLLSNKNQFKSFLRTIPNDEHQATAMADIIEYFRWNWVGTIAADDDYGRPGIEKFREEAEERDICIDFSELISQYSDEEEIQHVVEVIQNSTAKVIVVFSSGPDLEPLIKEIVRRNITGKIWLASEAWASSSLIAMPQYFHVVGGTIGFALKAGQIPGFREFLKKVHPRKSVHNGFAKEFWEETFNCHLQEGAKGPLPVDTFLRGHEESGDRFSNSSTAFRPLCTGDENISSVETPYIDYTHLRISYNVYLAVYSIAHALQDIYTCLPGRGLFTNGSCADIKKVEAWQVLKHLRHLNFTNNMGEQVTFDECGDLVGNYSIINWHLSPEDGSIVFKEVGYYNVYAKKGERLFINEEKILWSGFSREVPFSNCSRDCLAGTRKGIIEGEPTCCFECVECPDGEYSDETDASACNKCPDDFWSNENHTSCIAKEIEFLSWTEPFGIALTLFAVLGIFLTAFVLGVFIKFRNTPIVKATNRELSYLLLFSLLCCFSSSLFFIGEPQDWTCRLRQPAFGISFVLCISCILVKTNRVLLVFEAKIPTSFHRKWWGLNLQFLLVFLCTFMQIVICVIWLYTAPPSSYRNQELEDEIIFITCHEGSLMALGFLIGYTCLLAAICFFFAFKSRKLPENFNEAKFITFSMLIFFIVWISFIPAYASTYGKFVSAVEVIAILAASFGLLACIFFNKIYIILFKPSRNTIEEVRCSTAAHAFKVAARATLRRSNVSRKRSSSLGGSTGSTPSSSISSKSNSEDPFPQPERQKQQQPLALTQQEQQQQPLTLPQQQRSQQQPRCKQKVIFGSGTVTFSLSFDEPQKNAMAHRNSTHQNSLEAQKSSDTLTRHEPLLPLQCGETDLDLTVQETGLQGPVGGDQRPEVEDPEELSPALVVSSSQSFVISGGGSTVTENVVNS

## polylysine
[1]
  pKd: 9.30

## NC[C@@H]1O[C@H](O[C@H]2[C@@H](O)[C@H](O[C@@H]3[C@@H](O)[C@H](N)C[C@H](N)[C@H]3O[C@H]3O[C@H](CN)[C@@H](O)[C@H](O)[C@H]3N)O[C@@H]2CO)[C@H](N)[C@@H](O)[C@@H]1O [neomycin B]
[2]
  inhibition of PTH secretion: inhibited PTH secretion from human parathyroid cells
[3]; rMTC 6-23 cells, fura-2, "inactive" = no increase in cytosolic Ca2+ at 1 mM or 1-5 mM (footnote)
  EC50 (C-CELL): […]
[3]; spermine 10 mM, neomycin B 5 mM
  effect on basal [Ca^2+]i: without effect
[4]
  increase in ^45Ca^2+ release: 76%
[5]
  concentrations producing changes in Cl^- current: […]
[6]
  Net (+) Charge: […]
[7]
  increase in [Ca^2+]i: […]
[8]; neomycin 10 mM (25 mM extracellular Ca2+), spermine 20 mM, verapamil 100 µM
  effect on the response to subsequent extracellular Ca^2+: […]
[8]; neomycin 10 mM, spermine 10 or 20 mM
  increases in [Ca^2+]i in rat osteoclasts: […]
[8]; neomycin B 1 mM, spermine 1 or 5 mM
  increase in [Ca^2+]i in osteoclasts: […]
[8]; rat osteoclasts, indo-1, "inactive" = no increase in cytosolic Ca2+ at 1 mM or 1-5 mM (footnote)
  EC50 (OSTEOCLAST): […]
[9]; 10 mM, five water-injected oocytes (specificity control)
  change in current in water-injected oocytes: failed to cause any change in the current
[9]; 3 days after injection of human (hyperplastic) parathyroid poly(A)+ mRNA
  concentrations at which oscillatory increases in the Cl^- current were observed: […]
[9]; oocytes injected with mRNA from human parathyroid cells
  concentration causing the mobilization of intracellular Ca^2+ in oocytes: […]
